# Patent US20230176066A1, “PLASMON-ENHANCED FLUORO-DOT ASSAYS” (Washington University, priority 2021, published 2023)
# How the values were obtained:
# [1] = Fluorescence intensity vs. molar concentration of labels; format: physicochemical; settings: linear regression
# Procedure: Streptavidin-conjugated Cy3-plasmonic-fluor (PF550™ ultrabright fluor) and streptavidin-conjugated Cy5-plasmonic-fluor (PF650™ ultrabright fluor) were purchased from Auragent Biosceince LLC (St. Louis, USA). The extinction was measured using a Shimadzu UV-1800 spectrophotometer. SEM images were obtained using a FEI Nova 2300 field-emission scanning electron microscope at an acceleration voltage of 10 kV. TEM images were obtained using a JEOL JEM-2100F field emission instrument. A drop of aqueous solution was dried on a carbon-coated grid, which had been made hydrophilic by glow discharge. Molar concentrations of plasmonic-fluors was calculated as described previously. Fluorescence intensity was recorded using Azure Biomolecular Imager: Sapphire RGBNIR (Azure Biosystems, Inc. Dublin, USA) and the images were analyzed using Licor Image Studio Lite.
# For analyzing the statistical difference between more than two groups, one-way analysis of variance (ANOVA) with a post-hoc Tukey's honest significance test was used. Statistical significance of the data was calculated at 95% (p<0.05) confidence intervals. All values are expressed as mean±standard deviation. GraphPad Prism 6 was used for all statistical analysis. Linear regression was used to calculate the equation and to derive the slope of fluorescence intensity vs. molar concentration graph. […]
# JAWS II dendritic cells [2] = test: Fluoro-dot assay on JAWS II DC: TNFα secretion after LPS stimulation; format: cell-based, Mouse; settings: for TNFα secretion: 90 minutes incubation
# Procedure: Mouse TNFα DuoSet ELISA kits (R&D systems, catalog number DY410, lot number P189768) was used to perform the assays. Glass-bottom 96-well black plate (P96-1.5H-N, Cellvis, Mountain View, USA) was first coated with capture antibodies (0.8 μg/ml in PBS), 100 μl/well and incubated overnight at 4° C. The plate was washed three times with 1×PBS and then blocked with 200 μl of reagent diluent (1×PBS in 1% BSA, 0.2 μm filtered). After blocking, the plates were washed three times with PBS. Mouse JAWS II dendritic cells (immature, monocytes ATCC® CRL11904™) were cultured in alpha minimum essential medium with ribonucleosides, deoxyribonucleosides, 4 mM L-glutamine, 1 mM sodium pyruvate and 5 ng/ml murine GM-CSF, 10% heat-inactivated fetal bovine serum, 50 IU/ml of penicillin, 50 μg/ml of streptomycin. JAWS II DCs were seeded on the capture coated plates, at the seeding density of 5,000 cells/well in 100 μl of medium followed by incubation at 37° C. in 5% CO2 for 30 minutes. All the non-adherent cells were removed by taking out the medium and replacing it with 100 μl of fresh medium containing varying amounts of LPS ranging from (0 to 2000 ng/ml). The cells were incubated at 37° C. in 5% CO2 for varying durations from 20 minutes to 90 minutes.
# (§1) After completion of the incubation duration, the medium was decanted, and the cells were fixed using 100 μl/well of 4% neutral buffered formalin (NBF) for 20 minutes at room temperature. The plates were then washed three times with PBS and incubated with biotinylated detection antibodies, 75 ng/ml in reagent diluent for 2 hours at room temperature. The plates were washed three times using PBS and then were incubated with 100 μl/well of streptavidin Cy5-plasmonic-fluors (extinction 0.5) for 30 minutes at room temperature in dark. For comparison, 100 μl of 1 μg/ml of streptavidin-Cy5 (Thermo Fisher Scientific, catalog number SA1011) as conventional fluorophore and 1 nM of streptavidin QD655™ (Thermo Fisher Scientific, catalog number Q10123MP) was added to each well for 30 minutes at room temperature in dark. The plates were washed with PBS three times, and the nuclei of the cells were stained with 300 nM DAPI solution (Millipore Sigma, St. Louis, Mo., USA) for 5 minutes at room temperature in dark. Finally, the plates were washed three times in PBS and imaged using Nikon TsR2 epifluorescence microscope. For ELISA, culture supernatants of JAWS II DC after treatment described above were collected and TNFα concentration was measured using mouse TNFα DuoSet ELISA kits (R&D systems, catalog number DY410, lot number P189768) as per manufacturer's instructions.
# JAWS II dendritic cells [3] = test: Multiplexed Fluoro-dot assay: TNFα and IL-6 secretion after LPS stimulation; format: cell-based, Mouse; settings: 200 ng/ml LPS
# Procedure: Mouse TNFα DuoSet ELISA kits (R&D systems, catalog number DY410, lot number P189768) and mouse IL-6 DuoSet ELISA kit (R&D systems, catalog number DY406, lot number P234212) were used to perform the assays. Glass-bottom 96-well black plate (P96-1.5H-N, Cellvis, Mountain View, USA) was first coated with both TNFα capture antibody (0.8 μg/ml in PBS) and IL-6 capture antibody (2 μg/ml in PBS), 100 μ/well, and incubated overnight at 4° C. The plate was washed three times with 1×PBS and then blocked with 200 μl of reagent diluent (1×PBS in 1% BSA, 0.2 μm filtered). After blocking the plates were washed three times with PBS. JAWS II dendritic cells (ATCC® CRL-11904™) were cultured in alpha minimum essential medium with ribonucleosides, deoxyribonucleosides, 4 mM L-glutamine, 1 mM sodium pyruvate and 5 ng/ml murine GM-CSF, 10% heat-inactivated fetal bovine serum, 50 IU/ml of penicillin, 50 μg/ml of streptomycin. JAWS II DCs were seeded on the capture coated plates, at the seeding density of 5,000 cells/well in 100 μl of medium followed by incubation at 37° C. in 5% CO2 for 30 minutes. All the non-adherent cells were removed by taking out the medium and replacing it with 100 μl of fresh medium containing 200 ng/ml of LPS. The cells were incubated at 37° C. in 5% CO2 for 30 minutes, 1 hour, 2 hours, and 3 hours. The wells with medium and without LPS were incubated for 3 hours. […]
# JAWS II dendritic cells [4] = test: ELISA of culture supernatant of JAWS II DC after LPS stimulation; format: cell-based, Mouse; settings: low dose and short duration of stimulation
# Procedure: as §1
Substance,"slope of fluorescence intensity vs. molar concentration, steeper than that of the conventional fluorophore (Cy5 or Cy3) [1]",TNFα secretion (JAWS II dendritic cells [2]; 2 ng/ml LPS),TNFα secretion (JAWS II dendritic cells [2]; 20 ng/ml LPS),duration of treatment at which difference between treated and untreated cells was statistically significant (JAWS II dendritic cells [2]; 200 ng/ml LPS),incubation time after which TNFα secretion was detectable (JAWS II dendritic cells [2]; 200 ng/ml LPS) [min],"TNFα secretion with increasing LPS concentration (JAWS II dendritic cells [2]; 20, 200, 2000 ng/ml LPS, 90 minutes)","LPS dose at which difference between treated and untreated cells was statistically significant (JAWS II dendritic cells [2]; 90 min incubation, number of clusters and particles/cluster)",secretion of TNFα and IL-6 with increasing duration of LPS incubation (JAWS II dendritic cells [3]; 30 minutes to 3 hours),relative secretion of IL-6 and TNFα at longer time durations (JAWS II dendritic cells [3]; 2 hours and 3 hours),amount of TNFα secretion by ELISA (JAWS II dendritic cells [4])
Cy5-plasmonic-fluor: Streptavidin-conjugated Cy5 plasmon-enhanced fluorescent nanolabel purchased from Auragent Bioscience,"~16,000 fold",,,,,,,,,
lipopolysaccharide [LPS],,no significant secretion of TNFα,Substantial secretion,more than 40 minutes,40,increase in TNFα secretion,higher than 20 ng/ml,increase in the overall secretion of both cytokines,more predominant IL-6 secretion as compared to TNFα,below its detection limit
